Assay results from US8614068B2, “Process for producing hepcidin” (Hellenic Pasteur Institute, priority 2007, dated 2013).
“Also recorded” adds a separate entry of the source.

Experiments:
[1] = molecular target: T1, ferroportin (FPN1) (Mus musculus, UniProt Q9JHI9); experiment: Cross-linking and pull-down assay; assay type: binding, murine; details: RAW 264.7, 10 nM, cross-linking with DSS, Ni2-NTA pull-down, anti-ferroportin Western blot
T1 construct: endogenous in cells; host or cells: RAW 264.7 murine macrophages
T1 sequence (Q9JHI9 1-570): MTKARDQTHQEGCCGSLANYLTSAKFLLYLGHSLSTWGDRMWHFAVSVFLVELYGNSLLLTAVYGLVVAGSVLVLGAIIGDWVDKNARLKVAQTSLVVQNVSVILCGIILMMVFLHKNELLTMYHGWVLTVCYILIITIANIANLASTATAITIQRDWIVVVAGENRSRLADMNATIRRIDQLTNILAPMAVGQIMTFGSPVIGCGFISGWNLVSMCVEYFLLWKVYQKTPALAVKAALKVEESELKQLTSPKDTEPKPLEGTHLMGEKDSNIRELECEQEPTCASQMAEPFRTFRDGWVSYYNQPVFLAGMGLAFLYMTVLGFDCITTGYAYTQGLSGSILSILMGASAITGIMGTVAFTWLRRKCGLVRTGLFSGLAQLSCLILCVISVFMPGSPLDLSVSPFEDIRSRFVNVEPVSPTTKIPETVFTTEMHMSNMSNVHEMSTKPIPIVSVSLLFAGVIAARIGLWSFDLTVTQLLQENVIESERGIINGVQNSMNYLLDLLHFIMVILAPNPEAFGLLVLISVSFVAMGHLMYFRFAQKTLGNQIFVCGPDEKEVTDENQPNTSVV
Method: A, RAW 264.7 macrophages were treated with 11 μM and 10 μM of synthetic hepcidin-25 (having the sequence of SEQ ID NO. 2) and Hep-25His (having the sequence of SEQ ID NO. 6) for 4 h at 37° C. or with PBS as negative control. Cell lysates were subjected to 8% SDS PAGE and Western Blot with antibodies against TfR1, Ferroportin and actin as loading control. B, The signal density of ferroportin, TfR1 and actin protein bands from two independent experiments were quantified by densitometry and their intensity relative to actin was calculated. Data are expressed as mean of ratios of TfR1 or to actin levels ±S.D. for each experimental condition. *p<0.01. […] Hep25-His, negative peptide and PBS was incubated with Raw 264.7 macrophages, followed by cross-linking with DSS. Cell lysates were incubated with Ni2-NTA and eluates were analyzed by Western blot using anti-FPN1 Ab. […] HEK293-Fpn cells were induced with ponasterone for 24 h and then treated with Hep25-His or synthetic hepcidin 25 (s. Hep25) for 3 h. Fluorescence was visualized with a Leica TCS confocal microscope.
Disuccinimidyl suberate (DSS, Pierce, Rockford, Ill.) was added for 20 min at room temperature, followed by quenching with 20 mM TriseHCl pH 7.4 for 20 min. […] Bound proteins were eluted with 1 M imidazole and analyzed by Western blot using anti-FPN1 antibody as described above. […]

[2] = test system: E. coli strain ML35; details: at 30 μM
Method: Antimicrobial activity of recombinant tagged hepcidins. E. coli strain ML35 was subjected to CFU assay in order to determine the antimicrobial activity of synthetic hepcidin 25 (s. Hep25) having the sequence os SEQ ID NO. 2, Hep-25His having the sequence of SEQ ID NO. 6, Hep-25MycHis having the sequence of SEQ ID NO. 8, Hep-20MycHis having the sequence of SEQ ID NO. 7 and negative peptide having the sequence SEQ ID NO. 9 at the concentrations indicated for 2 h at 37° C. Sodium phosphate buffer was used as negative control.
Antimicrobial assay—All purified recombinant hepcidins were tested for antibacterial activity against E. coli ML35 and BL21(DE) is a CFU assay (Porter E. M., van Dam E., Valore E. V., Ganz T., Broad-spectrum antimicrobial activity of human intestinal defensin 5, Infect. Immun. 65 (1997) 2396-2401.). Bacterial cell cultures were grown to OD600=0.2 (5×10^7 cfu/ml) and resuspended to a final concentration of 10^6 cfu/ml in 20mM sodium phosphate buffer, pH7.4. Various concentrations of peptides were added to a final volume of 100 μl and after incubation for 2 h at 37° C., surviving cells were plated in triplicates to LB/agar plates.
Antimicrobial activity of recombinant hepcidins—The colony forming unit assay (E. M. Porter, E. van Dam, E. V. Valore, T. Ganz, Broad-spectrum antimicrobial activity of human intestinal defensin 5, Infect. Immun. 65 (1997) 2396-2401) was used to determine the antimicrobial activity of the purified recombinant hepcidin forms against the E. coli strain, ML35. […] Surviving microbes were counted following incubation with various concentrations of recombinant hepcidin preparations, synthetic hepcidin or negative peptide for 2 h at 37° C.

[3] = test system: RAW 264.7 macrophages; experiment: Labile Iron Pool (LIP) calcein assay; assay type: cell-based, murine; details: Hep-25His-treated RAW 264.7 macrophages
Method: FIG. 6. Recombinant tagged hepcidins increase the Labile Iron Pool in RAW 264.7 macrophages. RAW 264.7 macrophages were treated with 10 μM Hep-25His having the sequence of SEQ ID NO. 6, Hep-25MycHis having the sequence of SEQ ID NO. 8, Hep-20MycHis having the sequence of SEQ ID NO. 7 and negative peptide having the sequence of SEQ ID NO. 9 for 4 h at 37° C. PBS was used as negative and FAC at 30 μg/ml as positive control. Relative alterations of the LIP were monitored with calcein upon addition of isonicotinoyl-hydraxone salicylaldehyde. Data are expressed as mean±S.D. of two independent experiments performed in triplicates relative to control. **p<0.001, *p<0.05. Statistical analysis was performed with t-Test.
LIP assay—The fluorescent metalosensor calcein (Molecular Probes, Eugene, Oreg.) was used for the measurement of alterations in the levels of the LIP (Labile Iron Pool) (Murphy, A. T., Witcher, D. R., Luan, P., and Wroblewski, V. J. (2007) Blood 110, 1048-54). 1×10^6 RAW 264.7 macrophages were plated in 6-well plates. […] Fluorescence was measured with the Perkin Elmer LS55 fluorescent plate reader (Perkin Elmer LifeSciences, Boston Mass.) (488 nm excitation, 517 nm emission). […] Relative changes were expressed as percentage of the control. […]

For hepcidin-25His [Hep-25His], the “specific binding to FPN1” value [1] was “binds specifically to FPN1; also recorded: binds specifically to FPNI”, the “specific binding to FPN1” value ([1]; listed as recombinant peptide) was “can specifically bind to its receptor (ferroportin)” and the “reduction of the number of surviving bacteria” value [2] was 1000 fold. The “retention of iron, LIP levels” value [3] was “increase in LIP levels”.
